Key:
Format in all cases: biochemical
[1] = molecular target: 92 kDa gelatinase (MMP-9) (Homo sapiens, UniProt P14780); assay: MMP-9 enzyme inhibition assay (coumarin-labeled peptide substrate); settings: read-out: percentage inhibition MMP9
In short: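 Recombinant human MMP-9 (APMA-activated if needed) was assayed in 100 mM Tris-HCl pH 7.6, 100 mM NaCl, 10 mM CaCl2, 0.05% Brij 35, with McaPLGLDpaAR substrate at 37° C. for 2 h. Fluorescence was read at ex 320/em 405 nm over ten 3-fold compound doses (100 μM–5.1 nM) in duplicate. IC50 came from a four-parameter fit.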

metalloelastase (MMP-12) = metalloelastase (MMP-12) (Homo sapiens, UniProt P39900); assay: MMP-12 enzyme inhibition assay (coumarin-labelled peptide substrate); settings: read-out: IC50 MMP12
In short: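 Recombinant human MMP-12 assayed per the MMP-9 protocol: Tris-HCl pH 7.6 buffer with NaCl, CaCl2, Brij 35; McaPLGLDpaAR substrate, compounds 100 μM–5.1 nM in duplicate, 2 h at 37° C. Fluorescence read at 405 nm (320 nm excitation) without stopping; IC50 from four-parameter fit.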

gelatinase A (MMP-2) = molecular target: T1, gelatinase A (MMP-2) (Homo sapiens, UniProt P08253); assay: MMP-2 enzyme inhibition assay (coumarin-labelled peptide substrate); settings: read-out: IC50 MMP2
T1 sequence (P08253 110-660): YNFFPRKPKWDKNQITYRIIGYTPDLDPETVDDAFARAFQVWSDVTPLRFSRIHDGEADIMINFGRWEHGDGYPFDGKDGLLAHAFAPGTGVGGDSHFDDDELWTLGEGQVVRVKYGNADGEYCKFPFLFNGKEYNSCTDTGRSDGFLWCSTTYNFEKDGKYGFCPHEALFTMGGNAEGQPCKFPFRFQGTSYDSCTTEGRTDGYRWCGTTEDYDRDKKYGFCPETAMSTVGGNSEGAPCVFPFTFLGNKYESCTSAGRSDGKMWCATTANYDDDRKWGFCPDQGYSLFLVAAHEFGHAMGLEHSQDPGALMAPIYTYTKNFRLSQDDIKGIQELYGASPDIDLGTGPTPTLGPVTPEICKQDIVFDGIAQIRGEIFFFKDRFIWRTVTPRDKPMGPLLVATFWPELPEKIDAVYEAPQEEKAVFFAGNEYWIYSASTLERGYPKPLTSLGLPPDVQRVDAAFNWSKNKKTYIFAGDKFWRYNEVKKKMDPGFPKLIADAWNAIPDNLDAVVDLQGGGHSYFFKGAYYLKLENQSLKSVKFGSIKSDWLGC
In short: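 Recombinant human MMP-2, APMA-activated if necessary, run as for the MMP-9 protocol: McaPLGLDpaAR substrate (8 μM working dilution) in 100 mM Tris-HCl pH 7.6, 100 mM NaCl, 10 mM CaCl2, 0.05% Brij 35; ten 3-fold concentrations (100 μM–5.1 nM) in duplicate, 2 h at 37° C. Fluorescence ex 320/em 405 nm, unstopped; IC50 from four-parameter fit.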

MMP-14 = MMP-14 (Homo sapiens, UniProt P50281); assay: MMP-14 enzyme inhibition assay (coumarin-labelled peptide substrate); settings: read-out: percentage inhibition MMP14
In short: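 Recombinant human enzyme, APMA-activated if necessary, was incubated with McaPLGLDpaAR substrate and compound (10 concentrations in duplicate, 100 μM to 5.1 nM) in Tris-HCl pH 7.6 with NaCl, CaCl2 and Brij 35 for 2 h at 37 °C. Fluorescence was read at 320/405 nm, and IC50 was taken from a four-parameter fit.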

92 kDa gelatinase (MMP-9), sequence (P14780 107-707 limits assumed): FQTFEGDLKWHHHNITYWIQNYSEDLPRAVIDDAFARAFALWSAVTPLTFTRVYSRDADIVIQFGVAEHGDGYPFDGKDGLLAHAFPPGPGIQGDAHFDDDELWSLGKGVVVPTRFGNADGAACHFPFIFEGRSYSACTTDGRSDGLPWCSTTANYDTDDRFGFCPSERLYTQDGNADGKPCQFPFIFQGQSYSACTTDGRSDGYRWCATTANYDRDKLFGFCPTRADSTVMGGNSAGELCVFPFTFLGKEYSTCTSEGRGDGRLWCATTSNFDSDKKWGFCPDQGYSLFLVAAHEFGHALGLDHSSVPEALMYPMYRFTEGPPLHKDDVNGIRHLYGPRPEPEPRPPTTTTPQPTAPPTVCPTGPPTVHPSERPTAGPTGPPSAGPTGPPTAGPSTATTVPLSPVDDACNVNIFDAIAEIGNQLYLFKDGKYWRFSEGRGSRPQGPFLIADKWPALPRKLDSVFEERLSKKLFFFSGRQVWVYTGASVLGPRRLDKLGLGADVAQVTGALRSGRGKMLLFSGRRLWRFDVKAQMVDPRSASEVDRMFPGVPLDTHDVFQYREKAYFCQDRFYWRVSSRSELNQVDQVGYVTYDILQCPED
metalloelastase (MMP-12), sequence (P39900 106-470): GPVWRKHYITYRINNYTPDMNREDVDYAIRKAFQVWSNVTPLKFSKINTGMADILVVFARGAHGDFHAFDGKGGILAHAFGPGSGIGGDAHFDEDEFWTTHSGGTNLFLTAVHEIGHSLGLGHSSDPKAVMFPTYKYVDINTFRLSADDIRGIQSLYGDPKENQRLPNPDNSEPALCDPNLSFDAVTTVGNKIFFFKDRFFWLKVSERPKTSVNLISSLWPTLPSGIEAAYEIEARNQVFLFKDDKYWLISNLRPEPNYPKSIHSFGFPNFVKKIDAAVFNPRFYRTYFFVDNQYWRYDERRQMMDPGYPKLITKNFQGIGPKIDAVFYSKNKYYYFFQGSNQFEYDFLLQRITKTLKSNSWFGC

| Compound | inhibition at 0.1 µM [1] [%] | inhibition at 5 µM [1] [%] | IC50 (metalloelastase (MMP-12)) [nM] | IC50 (gelatinase A (MMP-2)) [nM] | inhibition at 0.1 µM (MMP-14) [%] | inhibition at 5 µM (MMP-14) [%] |
| --- | --- | --- | --- | --- | --- | --- |
| O=CN(O)C(CCO)CS(=O)(=O)N1CCc2ccc(Cl)cc2C1 (centres unmarked) [Example 48, N-(1-{[(7-chloro-3,4-dihydroisoquinolin-2(1H)-yl)sulfonyl]-methyl}-3-hydroxypropyl)-N-hydroxyformamide] | – | 8 | 46 | 77 | – | 41 |
| O=CN(O)C(CS(=O)(=O)N1CCc2ccc(F)cc2C1)c1ccoc1 (centres unmarked) [Example 52, N-[2-[(7-fluoro-3,4-dihydroisoquinolin-2(1H)-yl)sulfonyl]-1-(3-furyl)ethyl]-N-hydroxyformamide] | – | 10 | 46 | 298 | – | 49 |
| O=CN(O)C(CS(=O)(=O)N1CCc2ccc(F)cc2C1)C1CCN(Cc2ccccc2)CC1 (centres unmarked) [Example 53, N-{1-(1-benzylpiperidin-4-yl)-2-[(7-fluoro-3,4-dihydro-isoquinolin-2(1H)-yl)sulfonyl]ethyl}-N-hydroxyformamide] | – | 5 | 106 | 298 | – | 34 |
| CC(C)(CS(=O)(=O)N1CCc2ccc(Br)cc2C1)N(O)C=O [Example 56, N-{2-[(7-bromo-3,4-dihydroisoquinolin-2(1H)-yl)sulfonyl]-1,1-dimethylethyl}-N-hydroxyformamide] | – | 2 | 51 | 190 | – | 48 |
| CC(C)(C)c1ccc2c(c1)CN(S(=O)(=O)CC(COCc1ccccc1)N(O)C=O)CC2 (centres unmarked) [Example 57, N-(2-(benzyloxy)-1-{[(7-tert-butyl-3,4-dihydroisoquinolin-2(1H)-yl)sulfonyl]methyl}ethyl)-N-hydroxyformamide] | – | 0 | 117 | > 5000 | – | 0 |
| O=CN(O)C(CS(=O)(=O)N1CCc2ccc(F)cc2C1)C1CCCC1 (centres unmarked) [Example 60, N-{1-cyclopentyl-2-[(7-fluoro-3,4-dihydroisoquinolin-2(1H)-yl)sulfonyl]ethyl}-N-hydroxyformamide] | – | 0 | 69 | 411 | – | 16 |
| O=CN(O)C(COc1ccccc1)CS(=O)(=O)N1CCc2ccc(Cl)cc2C1 (centres unmarked) [Example 61, N-[2-[(7-chloro-3,4-dihydroisoquinolin-2(1H)-yl)sulfonyl]-1-(phenoxymethyl)ethyl]-N-hydroxyformamide] | – | 12 | 15 | 38 | – | 43 |
| O=CN(O)C1(CS(=O)(=O)N2CCc3ccc(Cl)cc3C2)CCCC1 [Example 62, N-(1-{[(7-chloro-3,4-dihydroisoquinolin-2(1H)-yl)-sulfonyl]methyl}cyclopentyl)-N-hydroxyformamide] | – | 1 | 36 | 293 | – | 75 |
| CCCCCC(C)(C)C(CS(=O)(=O)N1CCc2cc(C(F)(F)F)ccc2C1)N(O)C=O (centres unmarked) [Example 63, N-[2,2-dimethyl-1-({[6-(trifluoromethyl)-3,4-dihydro-isoquinolin-2(1H)-yl]sulfonyl}methyl)heptyl]-N-hydroxyformamide] | – | 7 | 88 | > 5000 | – | 9 |
| CC(C)(C)C(CS(=O)(=O)N1CCc2ccc(Cl)cc2C1)N(O)C=O (centres unmarked) [Example 65, N-(1-{[(7-chloro-3,4-dihydroisoquinolin-2(1H)-yl)sulfonyl]methyl}-2,2-dimethylpropyl)-N-hydroxyformamide] | – | 13 | 27 | 277 | – | 50 |
| O=CN(O)C(CS(=O)(=O)N1CCc2ccc(-c3ccsc3)cc2C1)C1CCCC1 (centres unmarked) [Example 68, N-(1-cyclopentyl-2-{[7-(3-thienyl)-3,4-dihydroisoquinolin-2(1H)-yl]sulfonyl}ethyl)-N-hydroxyformamide] | – | 31 | 9 | 221 | -30 | 99 |

Stronger by IC50 (metalloelastase (MMP-12)), values ahead:

| inhibition at 0.1 µM [1] [%] | inhibition at 5 µM [1] [%] | IC50 (metalloelastase (MMP-12)) [nM] | IC50 (gelatinase A (MMP-2)) [nM] | inhibition at 0.1 µM (MMP-14) [%] | inhibition at 5 µM (MMP-14) [%] | Compound |
| --- | --- | --- | --- | --- | --- | --- |
| – | 32 | 7.9 | 42 | – | 71 | O=CN(O)C(CS(=O)(=O)N1CCc2ccc(Br)cc2C1)C1CCCC1 (centres unmarked) [Example 64, N-{2-[(7-bromo-3,4-dihydroisoquinolin-2(1H)-yl)sulfonyl]-1-cyclopentylethyl}-N-hydroxyformamide] |
| – | 32 | 7.5 | 83 | – | 43 | O=CN(O)C(COCc1ccccc1)CS(=O)(=O)N1CCc2ccc(C(F)(F)F)cc2C1 (centres unmarked) [Example 59, N-[2-(benzyloxy)-1-({[7-(trifluoromethyl)-3,4-dihydro-isoquinolin-2(1H)-yl]sulfonyl}methyl)ethyl]-N-hydroxyformamide] |
| – | 39 | 6 | 24 | 19 | 86 | CC(C)CC(CS(=O)(=O)N1CCc2ccc(Br)cc2C1)N(O)C=O (centres unmarked) [Example 55, N-(1-{[(7-bromo-3,4-dihydroisoquinolin-2(1H)-yl)-sulfonyl]methyl}-3-methylbutyl)-N-hydroxyformamide] |
| – | 43 | 5.5 | 11 | 14 | 86 | O=CN(O)C(CO)CS(=O)(=O)N1CCc2cc(Cl)c(Cl)cc2C1 (centres unmarked) [Example 49, N-[2-[(6,7-dichloro-3,4-dihydroisoquinolin-2(1H)-yl)-sulfonyl]-1-(hydroxymethyl)ethyl]-N-hydroxyformamide] |
| – | 41 | 4.5 | 20 | 11 | 79 | O=CN(O)C(COCc1ccccc1)CS(=O)(=O)N1CCc2ccc(Cl)cc2C1 (centres unmarked) [Example 58, N-(2-(benzyloxy)-1-{[(7-chloro-3,4-dihydroisoquinolin-2(1H)-yl)sulfonyl]methyl}ethyl)-N-hydroxyformamide] |
| 4 | 72 | 3.5 | 90 | 13 | 83 | CC(C)C(CS(=O)(=O)N1CCc2ccc(-c3ccc(F)cc3)cc2C1)N(O)C=O (centres unmarked) [Example 50, N-[1-({[7-(4-fluorophenyl)-3,4-dihydroisoquinolin-2(1H)-yl]sulfonyl}methyl)-2-methylpropyl]-N-hydroxyformamide] |
| 1 | 68 | 3.2 | 21 | 14 | 89 | CC(C)(C)CC(CS(=O)(=O)N1CCc2cc(C(F)(F)F)ccc2C1)N(O)C=O (centres unmarked) [Example 43, N-[3,3-dimethyl-1-({[6-(trifluoromethyl)-3,4-dihydro-isoquinolin-2(1H)-yl]sulfonyl}methyl)butyl]-N-hydroxyformamide] |
| – | 40 | 2.5 | 33 | 7 | 79 | O=CN(O)C(CS(=O)(=O)N1CCc2cc(C(F)(F)F)ccc2C1)[C@H]1CCCO1 (stereo partly drawn) [Example 47, N-hydroxy-N-(1-[(2R)-tetrahydrofuran-2-yl]-2-{[6-(tri-fluoromethyl)-3,4-dihydroisoquinolin-2(1H)-yl]sulfonyl}ethyl)formamide] |
| – | 47 | 1.5 | 25 | – | 92 | CC(C)c1ccc2c(c1)CCN(S(=O)(=O)C[C@H]([C@H]1CCCO1)N(O)C=O)C2 [Example 45, N-hydroxy-N-{(1S)-2-[(6-isopropyl-3,4-dihydroisoquinolin-2(1H)-yl)sulfonyl]-1-[(2R)-tetrahydrofuran-2-yl]ethyl}formamide] |
